Measurements from ChEMBL document CHEMBL3758158, “Discovery of 2-azetidinone and 1H-pyrrole-2,5-dione derivatives containing sulfonamide group at the side chain as potential cholesterol absorption inhibitors” (Bioorg Med Chem Lett, 2016).
Active and inactive are the calls of the source. No cut-off for these calls is given here.

Assays:
[1] = Octanol-water partition coefficient, logP of the compound by HPLC analysis; assay type: physicochemical
[2] = target: T1, NPC1-like intracellular cholesterol transporter 1 (Homo sapiens) (UniProt Q9UHC9); test: Inhibition of niemann pick C1-like protein-1 in human Caco-2 cells assessed as cholesterol uptake at 100 uM after 24 hrs by HPLC analysis; assay type: cell-based
T1 sequence (whole entry): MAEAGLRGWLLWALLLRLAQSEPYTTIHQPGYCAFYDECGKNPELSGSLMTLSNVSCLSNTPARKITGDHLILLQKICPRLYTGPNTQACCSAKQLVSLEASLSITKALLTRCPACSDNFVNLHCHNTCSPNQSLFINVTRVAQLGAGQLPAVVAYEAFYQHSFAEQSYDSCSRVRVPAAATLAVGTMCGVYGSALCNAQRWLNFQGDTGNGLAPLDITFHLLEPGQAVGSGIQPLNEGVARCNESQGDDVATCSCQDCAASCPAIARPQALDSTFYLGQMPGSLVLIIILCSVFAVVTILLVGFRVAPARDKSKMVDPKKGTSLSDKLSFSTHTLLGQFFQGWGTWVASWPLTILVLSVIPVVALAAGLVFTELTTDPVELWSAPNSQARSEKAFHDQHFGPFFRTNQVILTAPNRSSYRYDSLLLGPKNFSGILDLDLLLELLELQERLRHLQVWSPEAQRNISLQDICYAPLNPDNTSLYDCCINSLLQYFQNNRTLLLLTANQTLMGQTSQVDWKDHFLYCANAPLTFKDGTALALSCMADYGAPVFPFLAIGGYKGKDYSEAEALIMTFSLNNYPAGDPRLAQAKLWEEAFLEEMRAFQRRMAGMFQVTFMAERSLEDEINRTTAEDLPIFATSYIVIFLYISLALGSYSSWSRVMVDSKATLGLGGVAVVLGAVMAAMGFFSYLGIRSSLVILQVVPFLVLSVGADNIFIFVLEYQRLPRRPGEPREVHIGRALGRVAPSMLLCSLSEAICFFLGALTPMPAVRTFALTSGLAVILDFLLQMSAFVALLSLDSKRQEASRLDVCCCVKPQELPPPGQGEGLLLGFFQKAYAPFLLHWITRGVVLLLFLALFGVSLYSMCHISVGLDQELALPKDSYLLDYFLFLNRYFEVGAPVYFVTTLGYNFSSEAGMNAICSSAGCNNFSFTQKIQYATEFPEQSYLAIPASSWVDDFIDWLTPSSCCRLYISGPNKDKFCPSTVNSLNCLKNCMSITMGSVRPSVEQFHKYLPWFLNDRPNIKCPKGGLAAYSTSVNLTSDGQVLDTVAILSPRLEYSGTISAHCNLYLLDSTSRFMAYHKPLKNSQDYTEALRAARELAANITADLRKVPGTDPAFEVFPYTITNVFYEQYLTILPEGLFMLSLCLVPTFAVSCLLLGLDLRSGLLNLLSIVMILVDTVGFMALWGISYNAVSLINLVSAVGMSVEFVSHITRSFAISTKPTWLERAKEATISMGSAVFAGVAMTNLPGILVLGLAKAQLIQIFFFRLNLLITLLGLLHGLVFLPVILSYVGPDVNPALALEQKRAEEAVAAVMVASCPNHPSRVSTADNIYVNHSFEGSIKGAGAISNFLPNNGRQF

[3] = Cytotoxicity against human GES-1 cells assessed as cell viability after 48 hrs by MTT assay; assay type: cell-based, GES1; settings: read-out: LC50
[4] = Cytotoxicity against human HEK293 cells assessed as cell viability after 48 hrs by MTT assay; assay type: cell-based; settings: read-out: LC50
Hamster [5] = test: Decrease in total cholesterol level in serum of cholesterol fed hamster model at 50 mg/kg/day, po administered for 7 days measured on day 7 post last dose; assay type: functional, Cricetinae; design: scale not given: the % may be the effect or the level left
Hamster [6] = test: Decrease in low density lipoprotein cholesterol level in serum of cholesterol fed hamster model at 50 mg/kg/day, po administered for 7 days measured on day 7 post last dose; assay type: functional, Cricetinae; design: scale not given: the % may be the effect or the level left
Hamster [7] = test: Decrease in free fatty acid level in serum of cholesterol fed hamster model at 50 mg/kg/day, po administered for 7 days measured on day 7 post last dose; assay type: functional, Cricetinae; design: scale not given: the % may be the effect or the level left
Hamster [8] = test: Decrease in triglyceride level in serum of cholesterol fed hamster model at 50 mg/kg/day, po administered for 7 days measured on day 7 post last dose; assay type: functional, Cricetinae; design: scale not given: the % may be the effect or the level left
Hamster [9] = test: Increase in proportion of high density lipoprotein cholesterol to total cholesterol in serum of cholesterol fed hamster at 50 mg/kg/day, po administered for 7 days measured on day 7 post last dose; assay type: functional, Cricetinae
Hamster [10] = test: Toxicity in cholesterol fed hamster model assessed as decrease in body weight at 50 mg/kg/day, po administered for 7 days measured for 3 days during compound dosing; assay type: organism-based; settings: cricetinae, in vivo, 72 h
Hamster [11] = test: Effect on triglyceride level in cholesterol fed hamster liver at 50 mg/kg/day, po administered for 7 days measured on day 7 post last dose; assay type: ADME, organism-based; settings: cricetinae, in vivo, 168 h
Hamster [12] = test: Increase in nitric oxide level in serum of cholesterol fed hamster at 50 mg/kg/day, po administered for 7 days measured on day 7 post last dose; assay type: functional, organism-based; settings: Cricetinae
Hamster [13] = test: Increase in nitric oxide synthase level in serum of cholesterol fed hamster at 50 mg/kg/day, po administered for 7 days measured on day 7 post last dose; assay type: functional, organism-based; settings: Cricetinae
Hamster [14] = test: Effect on total cholesterol level in cholesterol fed hamster liver at 50 mg/kg/day, po administered for 7 days measured on day 7 post last dose; assay type: ADME, organism-based; settings: cricetinae, in vivo, 168 h
Hamster [15] = test: Toxicity in cholesterol fed hamster model assessed as change in body weight at 50 mg/kg/day, po administered for 7 days measured during compound dosing; assay type: organism-based; settings: cricetinae, in vivo, 168 h

Row | Structure (SMILES) | logP [1] | inhibition [2] | CC50 at 48 h [3] [µM] | CC50 at 48 h [4] [µM] | other results
1 | Cc1ccc(N2C(=O)[C@H](CCCNS(=O)(=O)c3ccc(OC(F)(F)F)cc3)[C@H]2c2ccc(NS(=O)(=O)c3ccc(C)cc3)cc2)cc1 | 3.4 | Active | > 100 | > 100 | 
2 | Cc1ccc(N2C(=O)[C@H](CCCNS(=O)(=O)c3cccs3)[C@H]2c2ccc([N+](=O)[O-])cc2)cc1 |  | Active |  |  | 
3 | O=C1[C@H](CC[C@H](O)c2ccc(F)cc2)[C@@H](c2ccc(O)cc2)N1c1ccc(F)cc1 [EZETIMIBE] | 3.4 |  | 61.3 | 54.6 | Activity (Hamster [5]): 30.2%; Activity (Hamster [6]): 24.8%; Activity (Hamster [7]): 29.5%; Activity (Hamster [8]): 36%; Activity (Hamster [9]): 56%; Activity (Hamster [10]): Toxic
4 | CCc1ccc(S(=O)(=O)NCCC[C@H]2C(=O)N(c3ccc(C)cc3)[C@@H]2c2ccc([N+](=O)[O-])cc2)cc1 | ≥ 4.4 | Active | > 100 | > 100 | 
5 | Cc1ccc(N2C(=O)[C@H](CCCNS(=O)(=O)c3ccc(OC(F)(F)F)cc3)[C@H]2c2ccc([N+](=O)[O-])cc2)cc1 | ≥ 4.4 | 47.9% | 56.8 | > 100 | 
6 | CCc1ccc(S(=O)(=O)NCCC[C@H]2C(=O)N(c3ccc(C)cc3)[C@@H]2c2ccc(NS(=O)(=O)c3ccc(C)cc3)cc2)cc1 | 3.4 | Active | 92.9 | 42.9 | 
7 | O=C1C(c2ccc(O)cc2)=C(c2ccc(F)cc2)C(=O)N1CCCCNS(=O)(=O)c1ccc(C(F)(F)F)cc1 |  | Active |  |  | 
8 | O=C1C(c2ccc(O)cc2)=C(c2ccc(F)cc2)C(=O)N1CCCCNS(=O)(=O)c1ccc(OC(F)(F)F)cc1 |  | Active |  |  | 
9 | Cc1ccc(N2C(=O)[C@H](CCCNS(=O)(=O)c3ccc(OC(F)(F)F)cc3)[C@H]2c2ccc(NS(C)(=O)=O)cc2)cc1 | 3.4 | 41.4% | > 100 | > 100 | Activity (Hamster [11]): Non-toxic; Activity (Hamster [5]): 25.7%; Activity (Hamster [6]): 17.8%; Activity (Hamster [7]): 21.4%; Activity (Hamster [8]): 25.3%; Activity (Hamster [9]): 42.9%; Activity (Hamster [12]): Active; Activity (Hamster [13]): Active; Activity (Hamster [14]): Non-toxic; Activity (Hamster [15]): Non-toxic
10 | CCc1ccc(S(=O)(=O)NCCC[C@H]2C(=O)N(c3ccc(C)cc3)[C@@H]2c2ccc(NS(C)(=O)=O)cc2)cc1 | 3.4 | Active | > 100 | > 100 | 
